Measurements reported in patent US10821115B2, “Compounds that inhibit Mcl-1 protein” (priority 2017, dated 2020).

Tests used:
[1] = system: human multiple myeloma cell line, OPM-2; test: Cell viability assay (OPM-2 10 FBS), CellTiter-Glo; format: cell-based; details: Homo sapiens, OPM-2, 16 h, read-out: OPM-2 10% FBS IC50 IP, OPM-2 cells, 10% FBS, 16 h incubation
Summary of the method: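 Cells were seeded at 3000 cells/well in RPMI 1640 with 10% FBS and exposed to serially diluted compounds for 16 h at 37 °C, 5% CO2.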

[2] = target: recombinant human Mcl-1 (residues 171-327) / Bim interaction (Homo sapiens (Human), UniProt Q07820); test: biochemical; format: binding; details: 0.1 nM Mcl-1(171-327), 0.05 nM biotin-Bim (51-76); read-out: Mcl-1 HTRF IC50
Sequence of recombinant human Mcl-1 (residues 171-327) / Bim interaction (Q07820 171-327): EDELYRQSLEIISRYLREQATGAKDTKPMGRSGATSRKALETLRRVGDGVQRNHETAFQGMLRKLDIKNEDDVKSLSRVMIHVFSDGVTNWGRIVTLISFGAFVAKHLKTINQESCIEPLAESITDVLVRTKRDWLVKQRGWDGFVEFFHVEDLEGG

Row | Structure (SMILES) | IC50 [1] | IC50 [2]
1 | CO[C@@]1(CN2CCN(CCC#N)CC2)/C=C/C[C@H](C)[C@@H](C)S(=O)(=O)NC(=O)c2ccc3c(c2)N(C[C@@H]2CC[C@H]21)C[C@@]1(CCCc2cc(Cl)ccc21)CO3 [Example 318, 3-(4-(((1S,3′R,6′R,7′S,8′E,11′S, 12′R)-6-chloro-7′-methoxy-11′,12′-dimethyl-13′,13′-dioxido-15′-oxo-3,4-dihydro-2H-spiro[naphthalene-1,22′-[20]oxa[13]thia[1,14]diazatetracyclo [14.7.2.0~3,6~.0~19,24~]pentacosa[8,16,18,24]tetraen]-7′-yl)methyl)-1-piperazinyl)propanenitrile] | 0.077 µM | 0.000138 µM
2 | CO[C@]1(CN2CC3(C2)CN(C(C)C)C3)/C=C/C[C@H](C)[C@@H](C)S(=O)(=O)NC(=O)c2ccc3c(c2)N(C[C@@H]2CC[C@H]21)C[C@@]1(CCCc2cc(Cl)ccc21)CO3 [Example 320, (1S,3′R,6′R,7′R,8′E,11′S,12′R)-6-chloro-7′-methoxy-11′,12′-dimethyl-7′-((6-(1-methylethyl)-2,6-diazaspiro[3.3]hept-2-yl)methyl)-3,4-dihydro-2H,15′H-spiro[naphthalene-1,22′-[20]oxa[13]thia[1,14]diazatetracyclo [14.7.2.0~3,6~.0~19,24~]pentacosa[8,16,18,24]tetraen]-15′-one 13′,13′-dioxide] | 0.302 µM | 0.000524 µM
3 | CO[C@@]1(CN2CCN(Cc3ncon3)CC2)/C=C/C[C@H](C)[C@@H](C)S(=O)(=O)NC(=O)c2ccc3c(c2)N(C[C@@H]2CC[C@H]21)C[C@@]1(CCCc2cc(Cl)ccc21)CO3 [Example 321, (1S,3′R,6′R,7′S,8′E,11′S,12′R)-6-chloro-7′-methoxy-11′,12′-climethyl-7′-((4-(1,2,4-oxadiazol-3-ylmethyl)-1-piperazinyl)methyl)-3,4-dihydro-2H,15′H-spiro[naphthalene-1,22′-[20]oxa[13]thia[1,14]diazatetracyclo [14.7.2.0~3,6~.0~19,24~]pentacosa[8,16,18,24]tetraen]-15′-one 13′,13′-dioxide] | 0.092 µM | 0.000145 µM
4 | CO[C@@]1(CN2CCN(Cc3nc(C)c(C)o3)CC2)/C=C/C[C@H](C)[C@@H](C)S(=O)(=O)NC(=O)c2ccc3c(c2)N(C[C@@H]2CC[C@H]21)C[C@@]1(CCCc2cc(Cl)ccc21)CO3 [Example 322, (1S,3′R,6′R,7′S,8′E,11′S,12′R)-6-chloro-7′-((4-((4,5-dimethyl-1,3-oxazol-2-yl)methyl)-1-piperazinyl)methyl)-7′-methoxy-11′,12′-dimethyl-3,4-dihydro-2H,15′H-spiro[naphthalene-1,22′-[20]oxa[13]thia[1,14]diazatetracyclo [14.7.2.0~3,6~.0~19,24~]pentacosa[8,16,18,24]tetraen]-15′-one 13′,13′-dioxide] | 0.087 µM | 0.000145 µM
5 | CO[C@]1(CN2CCN(C(C)C)C(=O)C2)/C=C/C[C@H](C)[C@@H](C)S(=O)(=O)NC(=O)c2ccc3c(c2)N(C[C@@H]2CC[C@H]21)C[C@@]1(CCCc2cc(Cl)ccc21)CO3 [Example 323, (1S,3′R,6′R,7′R,8′E,11′S,12′R)-6-chloro-7′-methoxy-11′,12′-dimethyl-7′-((4-(1-methylethyl)-3-oxo-1-piperazinyl)methyl)-3,4-dihydro-2H,15′H-spiro[naphthalene-1,22′-[20]oxa[13]thia[1,14]diazatetracyclo [14.7.2.0~3,6~.0~19,24~]pentacosa[8,16,18,24]tetraen]-15′-one 13′,13′-dioxide] | 0.169 µM | 0.000166 µM
